Columns and labels:
Assay type in all cases: in vivo
Matricaria inodora [1] = assay: Pre-emergence herbicidal test, MATIN; set-up: key to herbicidal effect (0-9 scale) MATIN / herbicidal rating MATIN: A rating 0 indicates growth as untreated control; a rating 9 indicates death; conditions: PRE, 21 days after spraying
Procedure: (§1) To evaluate their herbicidal activity, compounds according to the invention are tested using a representative range of plants:
(§2) The pre-emergence tests involve spraying a liquid formulation of the compound onto the soil in which the seeds of the plant species mentioned above has recently been sown.
(§3) The soil used in the tests is a prepared horticultural loam. The formulations used in the tests are prepared from solutions of the test compounds in acetone containing 0.4% by weight of an alkylphenol/ethylene oxide condensate available under the trade mark TRITON X-155. […] In these tests untreated sown soil are used as controls.
(§4) The herbicidal effects of the test compounds are assessed visually twenty-one days after spraying the foliage and the soil and are recorded on a 0-9 scale. A rating 0 indicates growth as untreated control, a rating 9 indicates death. An increase of 1 unit on the linear scale approximates to a 10% increase in the level of effect.

Zea mays [2] = assay: Post-emergence herbicidal test, ZEAMX; conditions: 21 days after spraying
Procedure: as §1
(§5) […] After spraying, the plants are placed on greenhouse benches and are cared for in the usual manner, commensurate with conventional greenhouse practices.
as §4

Galium aparine [3] = assay: Post-emergence herbicidal test, GALAP; set-up: key to herbicidal effect (0-9 scale) GALAP / herbicidal rating GALAP: A rating 0 indicates growth as untreated control; a rating 9 indicates death; conditions: POST, 21 days after spraying
Procedure: as §1, §5, §4

Echinochloa crus-galli [4] = assay: Post-emergence herbicidal test, ECHCG; set-up: key: A rating 0 indicates growth as untreated control; a rating 9 indicates death; conditions: 21 days after spraying
Procedure: as §1, §5, §4

Ipomoea hederacea [5] = assay: Pre-emergence herbicidal test, IPOHE; conditions: 21 days after spraying
Procedure: as §1, §2, §3, §4

Setaria viridis [6] = assay: Pre-emergence herbicidal test, SETVI; set-up: key to herbicidal effect (0-9 scale) SETVI / herbicidal rating SETVI: A rating 0 indicates growth as untreated control; a rating 9 indicates death; conditions: PRE, 21 days after spraying
Procedure: as §1, §2, §3, §4

Galium aparine [7] = assay: Pre-emergence herbicidal test, GALAP; set-up: key to herbicidal effect (0-9 scale) GALAP / herbicidal rating GALAP: A rating 0 indicates growth as untreated control; a rating 9 indicates death; conditions: PRE, 21 days after spraying
Procedure: as §1, §2, §3, §4

Zea mays [8] = assay: Pre-emergence herbicidal test, ZEAMX; conditions: PRE, 21 days after spraying
Procedure: as §1, §2, §3, §4

Stellaria media [9] = assay: Post-emergence herbicidal test, STEME; set-up: key to herbicidal effect (0-9 scale) STEME / herbicidal rating STEME: A rating 0 indicates growth as untreated control; a rating 9 indicates death; conditions: POST, 21 days after spraying
Procedure: as §1, §5, §4

Abutilon theophrasti [10] = assay: Pre-emergence herbicidal test, ABUTH; set-up: key to herbicidal effect (0-9 scale) ABUTH / herbicidal rating ABUTH: A rating 0 indicates growth as untreated control; a rating 9 indicates death; conditions: PRE, 21 days after spraying
Procedure: as §1, §2, §3, §4

Glycine max [11] = assay: Pre-emergence herbicidal test, GLXMA; set-up: key to herbicidal effect (0-9 scale) GLXMA / herbicidal rating GLXMA: A rating 0 indicates growth as untreated control; a rating 9 indicates death; conditions: PRE, 21 days after spraying
Procedure: as §1, §2, §3, §4

Triticum aestivum [12] = assay: Pre-emergence herbicidal test, TRZAW; conditions: 21 days after spraying
Procedure: as §1, §2, §3, §4

Abutilon theophrasti [13] = assay: Post-emergence herbicidal test, ABUTH; set-up: key to herbicidal effect (0-9 scale) ABUTH / herbicidal rating ABUTH: A rating 0 indicates growth as untreated control; a rating 9 indicates death; conditions: POST, 21 days after spraying
Procedure: as §1, §5, §4

Alopecurus myosuroides [14] = assay: Post-emergence herbicidal test, ALOMY; set-up: key: A rating 0 indicates growth as untreated control; a rating 9 indicates death; conditions: 21 days after spraying
Procedure: as §1, §5, §4

Stellaria media [15] = assay: Pre-emergence herbicidal test, STEME; set-up: key to herbicidal effect (0-9 scale) STEME / herbicidal rating STEME: A rating 0 indicates growth as untreated control; a rating 9 indicates death; conditions: PRE, 21 days after spraying
Procedure: as §1, §2, §3, §4

Triticum aestivum [16] = assay: Post-emergence herbicidal test, TRZAW; set-up: key to herbicidal effect (0-9 scale) TRZAW: A rating 0 indicates growth as untreated control; a rating 9 indicates death; conditions: POST, 21 days after spraying
Procedure: as §1, §5, §4

Hordeum vulgare [17] = assay: Pre-emergence herbicidal test, HORVW; conditions: 21 days after spraying
Procedure: as §1, §2, §3, §4

Matricaria inodora [18] = assay: Post-emergence herbicidal test, MATIN; set-up: key to herbicidal effect (0-9 scale) MATIN / herbicidal rating MATIN: A rating 0 indicates growth as untreated control; a rating 9 indicates death; conditions: POST, 21 days after spraying
Procedure: as §1, §5, §4

Ipomoea hederacea [19] = assay: Post-emergence herbicidal test, IPOHE; set-up: key to herbicidal effect (0-9 scale) IPOHE / herbicidal rating IPOHE: A rating 0 indicates growth as untreated control; a rating 9 indicates death; conditions: POST, 21 days after spraying
Procedure: as §1, §5, §4

Glycine max [20] = assay: Post-emergence herbicidal test, GLXMA; conditions: 21 days after spraying
Procedure: as §1, §5, §4

Setaria viridis [21] = assay: Post-emergence herbicidal test, SETVI; set-up: key to herbicidal effect (0-9 scale) SETVI / herbicidal rating SETVI: A rating 0 indicates growth as untreated control; a rating 9 indicates death; conditions: POST, 21 days after spraying
Procedure: as §1, §5, §4

Hordeum vulgare [22] = assay: Post-emergence herbicidal test, HORVW; conditions: 21 days after spraying
Procedure: as §1
These acetone solutions are diluted with water and the resulting formulations applied at dosage levels equivalent to about 1000, 800, 400, 250 or 100 g/ha per hectare of test compound per pot. After spraying, the plants are placed on greenhouse benches and are cared for in the usual manner, commensurate with conventional greenhouse practices.
as §4

Echinochloa crus-galli [23] = assay: Pre-emergence herbicidal test, ECHCG; conditions: 21 days after spraying
Procedure: as §1, §2, §3, §4

Alopecurus myosuroides [24] = assay: Pre-emergence herbicidal test, ALOMY; conditions: PRE, 21 days after spraying
Procedure: as §1, §2, §3, §4

Cn1c(C(F)(F)F)cc(=O)n(-n2ccc3cc([N+](=O)[O-])ccc32)c1=O [Example 4]
4: herbicidal effect (0-9 scale) TRZAW (Triticum aestivum [16]; 400 g/ha) | herbicidal effect (0-9 scale) TRZAW (Triticum aestivum [16]; 800 g/ha)
3: herbicidal effect (0-9 scale) GLXMA (Glycine max [11]; 400 g/ha) | herbicidal effect (0-9 scale) GLXMA (Glycine max [11]; 800 g/ha) | herbicidal effect (0-9 scale) TRZAW (Triticum aestivum [12]; 400 g/ha)
7: herbicidal effect (0-9 scale) IPOHE (Ipomoea hederacea [5]; 400 g/ha) | herbicidal effect (0-9 scale) HORVW (Hordeum vulgare [17]; 800 g/ha)
8: herbicidal effect (0-9 scale) ZEAMX (Zea mays [2]; 800 g/ha) | herbicidal effect (0-9 scale) GALAP (Galium aparine [3]; 400 g/ha) | herbicidal effect (0-9 scale) ECHCG (Echinochloa crus-galli [4]; 400 g/ha) | herbicidal effect (0-9 scale) IPOHE (Ipomoea hederacea [5]; 800 g/ha) | herbicidal effect (0-9 scale) ZEAMX (Zea mays [8]; 800 g/ha) | herbicidal effect (0-9 scale) ALOMY (Alopecurus myosuroides [14]; 400 g/ha) | herbicidal effect (0-9 scale) GLXMA (Glycine max [20]; 400 g/ha) | herbicidal effect (0-9 scale) GLXMA (Glycine max [20]; 800 g/ha) | herbicidal effect (0-9 scale) ECHCG (Echinochloa crus-galli [23]; 400 g/ha) | herbicidal effect (0-9 scale) ECHCG (Echinochloa crus-galli [23]; 800 g/ha)
6: herbicidal effect (0-9 scale) ZEAMX (Zea mays [2]; 400 g/ha) | herbicidal effect (0-9 scale) ZEAMX (Zea mays [8]; 400 g/ha) | herbicidal effect (0-9 scale) TRZAW (Triticum aestivum [12]; 800 g/ha) | herbicidal effect (0-9 scale) HORVW (Hordeum vulgare [22]; 800 g/ha)
9: herbicidal effect (0-9 scale) MATIN (Matricaria inodora [1]; 400 g/ha) | herbicidal effect (0-9 scale) MATIN (Matricaria inodora [1]; 800 g/ha) | herbicidal effect (0-9 scale) GALAP (Galium aparine [3]; 800 g/ha) | herbicidal effect (0-9 scale) ECHCG (Echinochloa crus-galli [4]; 800 g/ha) | herbicidal effect (0-9 scale) SETVI (Setaria viridis [6]; 400 g/ha) | herbicidal effect (0-9 scale) SETVI (Setaria viridis [6]; 800 g/ha) | herbicidal effect (0-9 scale) GALAP (Galium aparine [7]; 400 g/ha) | herbicidal effect (0-9 scale) GALAP (Galium aparine [7]; 800 g/ha) | herbicidal effect (0-9 scale) STEME (Stellaria media [9]; 400 g/ha) | herbicidal effect (0-9 scale) STEME (Stellaria media [9]; 800 g/ha) | herbicidal effect (0-9 scale) ABUTH (Abutilon theophrasti [10]; 400 g/ha) | herbicidal effect (0-9 scale) ABUTH (Abutilon theophrasti [10]; 800 g/ha) | herbicidal effect (0-9 scale) ABUTH (Abutilon theophrasti [13]; 400 g/ha) | herbicidal effect (0-9 scale) ABUTH (Abutilon theophrasti [13]; 800 g/ha) | herbicidal effect (0-9 scale) ALOMY (Alopecurus myosuroides [14]; 800 g/ha) | herbicidal effect (0-9 scale) STEME (Stellaria media [15]; 400 g/ha) | herbicidal effect (0-9 scale) STEME (Stellaria media [15]; 800 g/ha) | herbicidal effect (0-9 scale) MATIN (Matricaria inodora [18]; 400 g/ha) | herbicidal effect (0-9 scale) MATIN (Matricaria inodora [18]; 800 g/ha) | herbicidal effect (0-9 scale) IPOHE (Ipomoea hederacea [19]; 400 g/ha) | herbicidal effect (0-9 scale) IPOHE (Ipomoea hederacea [19]; 800 g/ha) | herbicidal effect (0-9 scale) SETVI (Setaria viridis [21]; 400 g/ha) | herbicidal effect (0-9 scale) SETVI (Setaria viridis [21]; 800 g/ha)
5: herbicidal effect (0-9 scale) HORVW (Hordeum vulgare [17]; 400 g/ha) | herbicidal effect (0-9 scale) HORVW (Hordeum vulgare [22]; 400 g/ha)

Cn1c(C(F)(F)F)cc(=O)n(-n2ccc3ccc([N+](=O)[O-])cc32)c1=O [Example 5]
7: herbicidal effect (0-9 scale) MATIN (Matricaria inodora [1]; 250 g/ha) | herbicidal effect (0-9 scale) MATIN (Matricaria inodora [18]; 1000 g/ha) | herbicidal effect (0-9 scale) SETVI (Setaria viridis [21]; 250 g/ha) | herbicidal effect (0-9 scale) ECHCG (Echinochloa crus-galli [23]; 250 g/ha)
0: herbicidal effect (0-9 scale) STEME (Stellaria media [9]; 250 g/ha) | herbicidal effect (0-9 scale) GLXMA (Glycine max [11]; 250 g/ha) | herbicidal effect (0-9 scale) GLXMA (Glycine max [11]; 1000 g/ha) | herbicidal effect (0-9 scale) STEME (Stellaria media [15]; 250 g/ha) | herbicidal effect (0-9 scale) TRZAW (Triticum aestivum [16]; 250 g/ha)
5: herbicidal effect (0-9 scale) ZEAMX (Zea mays [2]; 1000 g/ha) | herbicidal effect (0-9 scale) ECHCG (Echinochloa crus-galli [4]; 250 g/ha) | herbicidal effect (0-9 scale) IPOHE (Ipomoea hederacea [5]; 250 g/ha) | herbicidal effect (0-9 scale) IPOHE (Ipomoea hederacea [5]; 1000 g/ha) | herbicidal effect (0-9 scale) GALAP (Galium aparine [7]; 250 g/ha) | herbicidal effect (0-9 scale) ZEAMX (Zea mays [8]; 1000 g/ha) | herbicidal effect (0-9 scale) STEME (Stellaria media [9]; 1000 g/ha) | herbicidal effect (0-9 scale) ABUTH (Abutilon theophrasti [10]; 250 g/ha) | herbicidal effect (0-9 scale) TRZAW (Triticum aestivum [12]; 1000 g/ha)
6: herbicidal effect (0-9 scale) GALAP (Galium aparine [3]; 1000 g/ha) | herbicidal effect (0-9 scale) ALOMY (Alopecurus myosuroides [24]; 1000 g/ha) | herbicidal effect (0-9 scale) HORVW (Hordeum vulgare [17]; 1000 g/ha) | herbicidal effect (0-9 scale) IPOHE (Ipomoea hederacea [19]; 250 g/ha) | herbicidal effect (0-9 scale) GLXMA (Glycine max [20]; 250 g/ha)
4: herbicidal effect (0-9 scale) GALAP (Galium aparine [3]; 250 g/ha) | herbicidal effect (0-9 scale) ZEAMX (Zea mays [8]; 250 g/ha) | herbicidal effect (0-9 scale) ALOMY (Alopecurus myosuroides [14]; 1000 g/ha) | herbicidal effect (0-9 scale) HORVW (Hordeum vulgare [17]; 250 g/ha) | herbicidal effect (0-9 scale) MATIN (Matricaria inodora [18]; 250 g/ha) | herbicidal effect (0-9 scale) HORVW (Hordeum vulgare [22]; 1000 g/ha)
8: herbicidal effect (0-9 scale) MATIN (Matricaria inodora [1]; 1000 g/ha) | herbicidal effect (0-9 scale) ECHCG (Echinochloa crus-galli [4]; 1000 g/ha) | herbicidal effect (0-9 scale) SETVI (Setaria viridis [6]; 250 g/ha) | herbicidal effect (0-9 scale) SETVI (Setaria viridis [6]; 1000 g/ha) | herbicidal effect (0-9 scale) GALAP (Galium aparine [7]; 1000 g/ha) | herbicidal effect (0-9 scale) ABUTH (Abutilon theophrasti [13]; 250 g/ha) | herbicidal effect (0-9 scale) GLXMA (Glycine max [20]; 1000 g/ha) | herbicidal effect (0-9 scale) SETVI (Setaria viridis [21]; 1000 g/ha) | herbicidal effect (0-9 scale) ECHCG (Echinochloa crus-galli [23]; 1000 g/ha)
3: herbicidal effect (0-9 scale) ALOMY (Alopecurus myosuroides [24]; 250 g/ha)
9: herbicidal effect (0-9 scale) ABUTH (Abutilon theophrasti [10]; 1000 g/ha) | herbicidal effect (0-9 scale) ABUTH (Abutilon theophrasti [13]; 1000 g/ha) | herbicidal effect (0-9 scale) IPOHE (Ipomoea hederacea [19]; 1000 g/ha)
1: herbicidal effect (0-9 scale) ALOMY (Alopecurus myosuroides [14]; 250 g/ha)
2: herbicidal effect (0-9 scale) ZEAMX (Zea mays [2]; 250 g/ha) | herbicidal effect (0-9 scale) TRZAW (Triticum aestivum [12]; 250 g/ha) | herbicidal effect (0-9 scale) STEME (Stellaria media [15]; 1000 g/ha) | herbicidal effect (0-9 scale) TRZAW (Triticum aestivum [16]; 1000 g/ha) | herbicidal effect (0-9 scale) HORVW (Hordeum vulgare [22]; 250 g/ha)
